Biological target: T1, recombinant human PAI-1 (Homo sapiens, UniProt P05121)
T1 construct: purchased Molecular Innovations, Inc
Test: Test Example 1: human PAI-1 inhibitory activity (tPA fluorogenic substrate, pH 7.5 Tris buffer)
Type: biochemical
Conditions: Tris buffer
Experimental: 50 mM Tris, 150 mM NaCl, 10 μg/ml BSA, 0.01% Tween80 (SIGMA-ALDRICH Corporation)

T1 sequence (P05121 24-402): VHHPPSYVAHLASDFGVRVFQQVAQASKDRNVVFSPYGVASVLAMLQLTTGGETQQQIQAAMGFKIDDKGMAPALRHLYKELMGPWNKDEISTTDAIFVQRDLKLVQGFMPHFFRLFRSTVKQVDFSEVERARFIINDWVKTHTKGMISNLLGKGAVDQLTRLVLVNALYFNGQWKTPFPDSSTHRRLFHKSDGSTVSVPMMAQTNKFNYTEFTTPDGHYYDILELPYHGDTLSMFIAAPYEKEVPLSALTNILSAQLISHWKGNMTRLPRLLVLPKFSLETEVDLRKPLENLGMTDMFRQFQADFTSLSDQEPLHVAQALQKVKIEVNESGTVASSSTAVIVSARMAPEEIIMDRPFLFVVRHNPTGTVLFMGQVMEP

| SMILES | Inhibition Rate of PAI-1 Activity (%) (Compound Concentration 5 μM) | Inhibition Rate of PAI-1 Activity (%) (Compound Concentration 10 μM) | Inhibition Rate of PAI-1 Activity (%) (Compound Concentration 25 μM) |
| --- | --- | --- | --- |
| O=C(O)CCc1cc(-c2ccc(OC(F)(F)F)cc2)ccc1OCc1ccc(-c2ccccc2)cc1 [Compound 29] | 21% | 56% | 88% |
| CC(C)(C)c1ccc(COc2ccc(-c3ccccc3OC(F)(F)F)cc2CCC(=O)O)cc1 [Compound 66] | 52% | 80% | >99% |
| Cc1ccc(COc2ccc(-c3ccc(OC(F)(F)F)cc3)cc2CCC(=O)O)cc1 [Compound 61] | 21% | 48% | 97% |
| O=C(O)C(=O)N(CCCCc1ccccc1)c1ccc(N2CCCCC2=O)c(-c2ccc(OC(F)(F)F)cc2)c1 [Compound 250] | 83% | 78% | – |
| CC(C)(C)c1ccc(-c2ccc(N(Cc3ccc(C(F)(F)F)cc3)C(=O)C(=O)O)cc2)cc1 [Compound 205] | 50% | 80% | 98% |
| CC(C)(C)c1ccc(COc2ccc(-c3ccc(OC(F)(F)F)cc3)cc2COCC(=O)O)cc1 [Compound 107] | 48% | 85% | 97% |
| CC(C)(C)c1ccc(CN(C(=O)C(=O)O)c2ccc(SCc3ccc(OC(F)(F)F)cc3)cc2)cc1 [Compound 630] | 56% | 89% | 88% |
| COc1ccc(-c2ccc(OCc3ccc(C(C)(C)C)cc3)c(CCC(=O)O)c2)cc1 [Compound 38] | 14% | 34% | 93% |
| CC(C)(C)c1ccc(N(C(=O)C(=O)O)c2cccc(Oc3ccc(OC(F)(F)F)cc3)c2)cc1 [Compound 170] | 38% | 73% | 94% |
| CC(C)(C)c1ccc(Oc2cccc(-c3ccc(OC(F)(F)F)cc3)c2C=CC(=O)O)cc1 [Compound 93] | 51% | 87% | 94% |
| COc1ccc(COc2ccc(-c3ccc(OC(F)(F)F)cc3)cc2CCC(=O)O)cc1 [Compound 60] | 15% | 35% | 25% |
| O=C(O)CCc1cc(-c2ccc(OC(F)(F)F)cc2)ccc1OCc1ccccc1 [Compound 3] | 35% | 68% | – |

Other lines, results leading:

| Inhibition Rate of PAI-1 Activity (%) (Compound Concentration 5 μM) | Inhibition Rate of PAI-1 Activity (%) (Compound Concentration 10 μM) | Inhibition Rate of PAI-1 Activity (%) (Compound Concentration 25 μM) | SMILES |
| --- | --- | --- | --- |
| 43% | 80% | 98% | CC(C)Oc1ccc(N(CCCc2ccccc2)C(=O)C(=O)O)c(-c2ccc(OC(F)(F)F)cc2)c1 [Compound 239] |
| – | 10% | 53% | O=C(O)CCc1cc(-c2ccc(OC(F)(F)F)cc2)ccc1OCc1ccc(F)cc1 [Compound 20] |
| 44% | 79% | 84% | CC(C)(C)c1ccc(CN(C(=O)C(=O)O)c2ccc(-c3ccc(OC(F)(F)F)cc3)c(C(F)(F)F)c2)cc1 [Compound 166] |
| 14% | 31% | 84% | O=C(O)CCc1cc(OCc2ccc(OC(F)(F)F)cc2)ccc1OCc1ccc(OC(F)(F)F)cc1 [Compound 404] |
| 55% | 88% | 94% | CC(C)(OCc1ccc(-c2ccc(OC(F)(F)F)cc2)cc1Oc1ccc(C(C)(C)C)cc1)C(=O)O [Compound 111] |
| 26% | 59% | 97% | CC(C)(C)c1ccc(COc2cc(/C=C/C(=O)O)cc(Oc3ccc(OC(F)(F)F)cc3)c2)cc1 [Compound 409] |
| 32% | 65% | >99% | CC(C)(C)c1ccc(COc2ccc(-c3ccc4c(c3)OCO4)cc2CC(=O)O)cc1 [Compound 10] |

— patent US8633245B2, “PAI-1 inhibitor” (Institute of Medicinal Molecular Design, Inc., priority 2008, dated 2014)
